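Interpolation was linear, between the two tested concentrations surrounding the appropriate level; five concentrations were tested over 48 hours in 96-well plates. GI50 is the concentration that inhibits growth by half.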 The source made the active and inactive calls. Rule as the data show it: active = GI50 up to about 1.1 µM and inactive = higher.
Experiments:
Experiment in all cases: NCI tumour cell line growth inhibition, 48 h
A549 = tested on: A549
CCRF-CEM = tested on: CCRF-CEM
HCT-116 = tested on: HCT-116
HOP-92 = tested on: HOP-92
HT-29 = tested on: HT-29
KM12 = tested on: KM12
LOX IMVI = tested on: LOX IMVI
MCF7 = tested on: MCF7
MDA-MB-435 = tested on: MDA-MB-435
MDA-N = tested on: MDA-N
Malme-3M = tested on: Malme-3M
OVCAR-4 = tested on: OVCAR-4
PC-3 = tested on: PC-3
SF-295 = tested on: SF-295
SK-MEL-2 = tested on: SK-MEL-2
SN12C = tested on: SN12C
SNB-19 = tested on: SNB-19
T47D = tested on: T47D
U-251 = tested on: U-251
UACC-257 = tested on: UACC-257

Compound | GI50 (A549) | GI50 (CCRF-CEM) | GI50 (HCT-116) | GI50 (HOP-92) | GI50 (HT-29) | GI50 (KM12) | GI50 (LOX IMVI) | GI50 (MCF7) | GI50 (MDA-MB-435) | GI50 (MDA-N) | GI50 (Malme-3M) | GI50 (OVCAR-4) | GI50 (PC-3) | GI50 (SF-295) | GI50 (SK-MEL-2) | GI50 (SN12C) | GI50 (SNB-19) | GI50 (T47D) | GI50 (U-251) | GI50 (UACC-257)
C=CC(=O)N1C/C(=C\c2ccc(OC)cc2)C(=O)/C(=C/c2ccc(OC)cc2)C1 | 2470 nM (inactive) | 1780 nM (inactive) | 219 nM (active) | 6030 nM (inactive) | 780 nM (active) | 1930 nM (inactive) | 986 nM (active) | 628 nM (active) | 2060 nM (inactive) | 1620 nM (inactive) | 2190 nM (inactive) | 2360 nM (inactive) | 1830 nM (inactive) | 2390 nM (inactive) | 2680 nM (inactive) | 2490 nM (inactive) | 7180 nM (inactive) | 6560 nM (inactive) | 1970 nM (inactive) | 3640 nM (inactive)
C[C@]12CC[C@H](O)C[C@H]1CC[C@@H]1[C@@H]2CC[C@]2(C)[C@@H](C3=CC(=O)OC3)[C@@H](O)C[C@]12O [GITOXIGENIN] | 445 nM (active) | 510 nM (active) | 1660 nM (inactive) | 9660 nM (inactive) | 3270 nM (inactive) | 4850 nM (inactive) | 2900 nM (inactive) | 2050 nM (inactive) | 3010 nM (inactive) | 2420 nM (inactive) | 1770 nM (inactive) | 1400 nM (inactive) | 1440 nM (inactive) | 1410 nM (inactive) | 2170 nM (inactive) | 566 nM (active) | 4450 nM (inactive) | 3650 nM (inactive) | 2220 nM (inactive) | 2200 nM (inactive)
